Consider two molecules from patent US6919188B1, “Pseudomycin production by Pseudomonas syringae” (Eli Lilly and Company, priority 1999, dated 2005).

Molecules are shown by their SMILES. “Also recorded” adds a separate entry of the source. Starred links: 1 amine or outer side, 2 acyl side, 3 side chain; linkers in the order of their positions; H or OH if unused. Positions of bridges follow the written chain, without caps; N, C: chain ends. Non-standard residues stand in square brackets, D forms with d. Residues, ends and D or L forms follow the SMILES beside them. ξ: configuration not given here. *: point of attachment. Tetradecanoyl(3R-OH) = CCCCCCCCCCC[C@@H](O)CC(=O)*; Asp(3S-OH) = N[C@H](C(=O)O)[C@H](O)C(=O)O; Thr(4-Cl) = N[C@H](C(=O)O)[C@H](O)CCl; ξAsp(3ξ-OH) = NC(C(=O)O)C(O)C(=O)O; X3 = O=C(C(N[*:1])C(O)CCl)[*:2]; X1 = CCCCCCCCCCC(O)C(O)CC(=O)*; aThr = C[C@H](O)[C@H](N)C(=O)O; X2 = C/C=C(/N[*:1])C(=O)[*:2]; dDab = NCC[C@@H](N)C(=O)O; Dab = NCC[CH](N)C(=O)O; Dhb = C/C=C(\N)C(=O)O

Data set [1] concerns fungi, including important fungal pathogens in both humans and plants. As to conditions: isolated pseudomycins; spectrum of fungi; cited from earlier work.
Data set [2] can be described thus: Toxicity of pseudomycins (general statement). As to conditions: no species or dose given.
In data set [3] the test system is fungi, including important fungal pathogens in both humans and plants. Briefly: Antifungal activity of isolated pseudomycins (general statements, literature). In kind it is cell-based. Conditions: comparison with pseudomycins A, C, certain fungi.

Regarding `C/C=C1/NC(=O)C(C(C)O)NC(=O)C(CCN)NC(=O)C(CCCCN)NC(=O)C(CC(=O)O)NC(=O)C(CCN)NC(=O)C(NC(=O)CC(O)C(O)CCCCCCCCCC)COC(=O)C(C(O)CCl)NC(=O)C(C(O)C(=O)O)NC1=O` (centres unmarked) [Pseudomycin A] (X1-S[Dab]DK[Dab]T[X2][ξAsp(3ξ-OH)][X3]; ester 1-C; configuration not given here), in data set [1], the antifungal activity entry is “activity against a wide variety of fungi; also recorded: wide spectrum antifungal activity”. For the same molecule, the toxicity entry in data set [2] is on record as “generally acceptable toxicity”.

As to `C/C=C1\NC(=O)[C@H]([C@H](C)O)NC(=O)[C@H](CCN)NC(=O)[C@H](CCCCN)NC(=O)[C@H](CC(=O)O)NC(=O)[C@@H](CCN)NC(=O)[C@@H](NC(=O)C[C@H](O)CCCCCCCCCCC)COC(=O)[C@H]([C@H](O)CCl)NC(=O)[C@H]([C@H](O)C(=O)O)NC1=O` [Pseudomycin B] ({Tetradecanoyl(3R-OH)}-S[dDab]DK[Dab][aThr][Dhb][Asp(3S-OH)][Thr(4-Cl)]; ester 1-C), the antifungal activity result in data set [1] is “activity against a wide variety of fungi; also recorded: wide spectrum antifungal activity”. The toxicity entry in data set [2] is “generally acceptable toxicity; also recorded: lower level of toxicity”. The “potency against fungi compared to the other preferred pseudomycins” value in data set [3] is given as “greater potency against certain fungi”.
